Reference: US10993984B2, “Terlipressin compositions and their methods of use” (Chiasma, Inc., priority 2016, dated 2021)
Bridge positions count the residues as written; N and C are the ends. Peptide text beside a SMILES is read from it.

Experiment: in vivo
Conditions: dog, iv, 0.2 mg
Method: The IV dosage was 0.2 mg per dog which is similar to the therapeutic dosage in humans. The oral dosage was 20 mg, and was selected by assuming a BA of about 1%. The concentration of both terlipressin and the active metabolite lysine vasopressin are shown as a function of time. The pharmacokinetic parameters of the active metabolite lysine-vasopressin were determined as well as terlipressin. Each Glypressin ampule contains 1 mg terlipressin acetate, which is equivalent to 0.85 mg terlipressin base. All doses in this study are expressed on the basis of terlipressin base.
All animals were fasted for at least 12 hours prior to dosing and through the first 4 hours of blood sample collection.
In the oral terlipressin capsule treatments, in order to acidify the stomach of the dog, approximately 30 minutes prior to dosing each animal received a single subcutaneous (SC) injection of pentagastrin (0.12 mg/mL) at a dose level of 0.006 mg/kg and a dose volume of 0.05 mL/kg. The same dogs can be used for more than one treatment, with a wash-out period of at least 1 week.
Blood was withdrawn at pre-determined times as follows:

Compound: NCCCC[C@H](NC(=O)[C@@H]1CCCN1C(=O)[C@@H]1CSSC[C@H](NC(=O)CNC(=O)CNC(=O)CN)C(=O)N[C@@H](Cc2ccc(O)cc2)C(=O)N[C@@H](Cc2ccccc2)C(=O)N[C@@H](CCC(N)=O)C(=O)N[C@@H](CC(N)=O)C(=O)N1)C(=O)NCC(N)=O [IV terlipressin, Terlipressin] (H-GGGCYFQNCPKG-NH2; disulfide 4-9)
- AUC(0-inf): 9.14 ng·h/mL
- AUC(0-t): 9.13 ng·h/mL
- Cmax: 59.1 ng/mL
- half-life: 13.9 ± 1.32 min
